Assay results taken from PubChem BioAssay AID1033 (Sanford-Burnham Center for Chemical Genomics, 2008).
Calls of active or inactive are those of the source. The rule behind the calls is not given here.

Molecular target: Chaperone protein DnaK (Escherichia coli (strain K12)) (UniProt P0A6Y8)
Assay: E. coli DnaK SBD ligand binding – biophysical, NMR, chaperone (AID 1033)
Conditions: Purified DnaK SBD

Chaperone protein DnaK (Escherichia coli (strain K12)), sequence (P0A6Y8 whole entry, looked up): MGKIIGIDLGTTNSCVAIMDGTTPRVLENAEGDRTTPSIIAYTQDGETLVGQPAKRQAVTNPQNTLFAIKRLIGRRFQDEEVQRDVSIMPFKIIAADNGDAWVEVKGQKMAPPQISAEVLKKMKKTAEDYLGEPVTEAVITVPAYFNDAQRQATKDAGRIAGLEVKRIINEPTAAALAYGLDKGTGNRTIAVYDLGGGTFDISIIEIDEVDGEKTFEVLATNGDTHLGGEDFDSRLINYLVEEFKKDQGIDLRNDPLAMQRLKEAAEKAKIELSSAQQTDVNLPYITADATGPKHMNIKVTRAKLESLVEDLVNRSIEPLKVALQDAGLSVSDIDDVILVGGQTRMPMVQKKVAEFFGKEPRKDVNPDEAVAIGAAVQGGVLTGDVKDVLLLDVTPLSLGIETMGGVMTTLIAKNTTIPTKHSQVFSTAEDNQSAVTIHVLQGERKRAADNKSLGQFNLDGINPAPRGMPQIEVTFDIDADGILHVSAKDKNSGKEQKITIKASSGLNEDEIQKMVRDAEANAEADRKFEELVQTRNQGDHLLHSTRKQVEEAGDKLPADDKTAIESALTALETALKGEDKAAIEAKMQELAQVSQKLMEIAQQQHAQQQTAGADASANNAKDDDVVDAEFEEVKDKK

Row | Compound | Kd
1 | CCOC(=O)c1c(C)nc2ncccn12 | > 4 mM (inactive)
2 | COc1ccc2nc(N)sc2c1 | > 4 mM (inactive)
3 | CN1C(=O)Cc2cc(S(N)(=O)=O)ccc21 | > 4 mM (inactive)
4 | COc1ccc(C2(CN)CCOCC2)cc1OC | > 4 mM (inactive)
5 | COC(=O)Cc1cccc(OC)c1 | > 4 mM (inactive)
6 | CC(C)=NNC(=O)c1ccccc1 | > 4 mM (inactive)
7 | CSc1ccc(C2NC(=O)CCC2[N+](=O)[O-])cc1 (configuration not stated) | > 4 mM (inactive)
8 | O=C(O)c1cc(O)c2c(c1)[C@@H]([C@H]1c3cc(C(=O)O)cc(O)c3C(=O)c3c(O[C@H]4O[C@H](CO)[C@@H](O)[C@H](O)[C@H]4O)cccc31)c1cccc(O[C@H]3O[C@H](CO)[C@@H](O)[C@H](O)[C@H]3O)c1C2=O | > 4 mM (inactive)
9 | C[C@@H]1OC(O[C@H]2C(O[C@H]3CC[C@@]4(C)C(CC[C@]5(C)C4CC=C4C6CC(C)(C)CC[C@]6(C(=O)O)CC[C@]45C)[C@]3(C)CO)OC[C@H](O)[C@@H]2O)[C@H](O)[C@H](O)[C@H]1O (some centres not stated) | > 4 mM (inactive)
10 | O=C(/C=C/c1ccccc1)c1ccc(O)cc1 | > 4 mM (inactive)
11 | CC(C)=CCc1c(O)cc2occ(-c3ccc4c(c3)OCO4)c(=O)c2c1O | > 4 mM (inactive)
12 | COc1ccc(Cl)cc1NC(=O)C(N)=O | > 4 mM (inactive)
13 | c1ccc(-c2n[nH]c(-c3ccccn3)n2)nc1 | > 4 mM (inactive)
14 | Cn1c(CN)nc2ccccc21 | > 4 mM (inactive)
15 | O=C(Nc1cccc2ncccc12)c1cccnc1 | > 4 mM (inactive)
16 | Cc1nc(-c2ccc(C(=O)N3CCOCC3)cc2)cs1 | > 4 mM (inactive)
17 | COc1ccc2nc(N)sc2n1 | > 4 mM (inactive)
18 | COC(=O)c1scc(S(C)(=O)=O)c1-n1cccc1 | > 4 mM (inactive)
19 | CNC(=S)Nc1ccc2c(c1)OCO2 | > 4 mM (inactive)
20 | OC[C@@H]1CCCN2CCCC[C@H]12 | > 4 mM (inactive)
21 | O=[N+]([O-])c1cccc(CN2CCC(O)CC2)c1 | > 4 mM (inactive)
22 | O=C1CN(C(=O)c2ccccc2F)c2ccccc2N1 | > 4 mM (inactive)
23 | O=C(CSc1nnc2ccccn12)N1CCOCC1 | > 4 mM (inactive)

Row | Compound | Kd
24 | OCC1=Cc2ccccc2OC1 | > 4 mM (inactive)
25 | COC(=O)C1Cc2ccccc2N1 (configuration not stated) | > 4 mM (inactive)
26 | COc1cc(OC)c2c(c1Cl)OC1(C2=O)C(O)=CC(=O)CC1C (configuration not stated) | > 4 mM (inactive)
27 | COc1cc(N)ncn1 | > 4 mM (inactive)
28 | Cc1cc(=O)n2[nH]c(N)nc2n1 | > 4 mM (inactive)
29 | NCc1ccc2c(c1)OCO2 | > 4 mM (inactive)
30 | CCOC(=O)c1c(C)cc(OC)cc1O | > 4 mM (inactive)
31 | Oc1ccccc1N1CCCC1 | > 4 mM (inactive)
32 | O=C(O)CC1C(=O)NCCN1Cc1cccs1 (configuration not stated) | > 4 mM (inactive)
33 | O=C(Nc1nncs1)c1c(F)cccc1F | > 4 mM (inactive)
34 | CC(=O)CNc1cc(CNC(C)=O)c(C)cc1C | > 4 mM (inactive)
35 | COc1c(O)cc2oc3cc(O)c(CC=C(C)C)c(O)c3c(=O)c2c1CC=C(C)C | > 4 mM (inactive)
36 | Nc1ccc(NS(=O)(=O)c2ccc(N)cc2)cc1 | > 4 mM (inactive)
37 | NS(=O)(=O)c1ccc(NC(=O)/C=C\C(=O)O)cc1 | > 4 mM (inactive)
38 | O=C(c1ccco1)N1CCCN(C(=O)c2ccco2)CC1 | > 4 mM (inactive)
39 | Cc1cc(C(=O)O)n[nH]1 | > 4 mM (inactive)
40 | O=C(Nc1cnc2ccccn2c1=O)c1ccc(F)cc1 | > 4 mM (inactive)
41 | NC(=O)CC1Nc2cccc3cccc(c23)NC1=O (configuration not stated) | > 4 mM (inactive)
42 | C=C1C(=O)O[C@@H]2C3OC3(C)CC/C=C(\C)CC[C@@H]12 (some centres not stated) | > 4 mM (inactive)
43 | CN(c1ccc(C(=O)N2CCCCC2)cc1)S(C)(=O)=O | > 4 mM (inactive)
44 | NC(=O)C1CCN(CC2CC=CCC2)CC1 (configuration not stated) | > 4 mM (inactive)
45 | CCC(C)C(NC)C(=O)O (configuration not stated) | > 4 mM (inactive)
46 | Nc1nc2ncc(=O)[nH]c2c(=O)[nH]1 | > 4 mM (inactive)

Row | Compound | Kd
47 | CCCCCC(=O)Cc1cc(O)cc(O)c1C(=O)Oc1cc(CC(=O)CCCCC)c(C(=O)O)c(OC)c1 | > 4 mM (inactive)
48 | C=Cc1c(C)c2cc3[nH]c(cc4nc(cc5nc(cc1[nH]2)C(C)=C5CCC(=O)O)C(CCC(=O)O)=C4C)c(C)c3C=C | > 4 mM (inactive)
49 | Cc1cc(O)c(C=O)c(O)c1C(=O)O | > 4 mM (inactive)
50 | C/C=C/COc1nc2c(c(=O)n(C)c(=O)n2C)n1C | > 4 mM (inactive)
51 | CC(=O)N1CC2(C)CN(C(C)=O)CC(C)(C1)C2 | > 4 mM (inactive)
52 | NC(=O)c1ccccc1NC(=O)C1CCCO1 (configuration not stated) | > 4 mM (inactive)
53 | CC(=O)Nc1ccc(C(=O)N2CCOCC2)cc1Cl | > 4 mM (inactive)
54 | Cc1nc2sccn2c1C(=O)O | > 4 mM (inactive)
55 | OCCCc1nc2ccccc2[nH]1 | > 4 mM (inactive)
56 | COc1cccc2c1CCC1=CC(=O)CC[C@@]12C | > 4 mM (inactive)
57 | CC(C)NC1CS(=O)(=O)CC1O (configuration not stated) | > 4 mM (inactive)
58 | O=C1CSC(=O)N1CN1CCOCC1 | > 4 mM (inactive)
59 | CC(=O)OC1CCC2(C)C3CC(=O)C4(C)C(CC5OC6(CCC(C)CO6)[C@@H](C)C54)C3CC[C@H]2C1 (some centres not stated) | > 4 mM (inactive)
60 | O=C(O)CCN1CCc2ccccc2C1c1ccncc1 (configuration not stated) | > 4 mM (inactive)
61 | O=C(O)c1cc2ccccc2[nH]1 | > 4 mM (inactive)
62 | O=c1c(O)cc([C@H]2Oc3cc(O)cc(O)c3C[C@H]2O)cc2c([C@H]3Oc4cc(O)cc(O)c4C[C@H]3O)cc(O)c(O)c12 | > 4 mM (inactive)
63 | COc1cc2[nH]c(=S)n(C)c(=O)c2cc1OC | > 4 mM (inactive)
64 | CC(N)C(=O)c1ccco1 (configuration not stated) | > 4 mM (inactive)
65 | Cc1nnc(SCc2cccs2)[nH]c1=O | > 4 mM (inactive)
66 | O=C(C1CCCCC1)N1CCN(c2ccccc2F)CC1 | > 4 mM (inactive)
67 | CC(C)(C)CC(=O)NNC(=O)c1cnccn1 | > 4 mM (inactive)
68 | CC(=O)Nc1cnn(-c2ccccc2)c(=O)c1Cl | > 4 mM (inactive)
69 | Nc1cccc(-n2cccc2)c1 | > 4 mM (inactive)

Row | Compound | Kd
70 | OCC1CCN(c2ncccn2)CC1 | > 4 mM (inactive)
71 | CC1(C)C2C[C@@H](O)[C@]3(C)C(CC[C@@]4(C)[C@H](c5ccoc5)OC(=O)[C@H]5O[C@]543)[C@@]2(C)[C@@H](O)C[C@H]1O (some centres not stated) | > 4 mM (inactive)
72 | CC1CCN(C(=O)c2ccc3c(c2)OCCO3)CC1 | > 4 mM (inactive)
73 | Oc1cc(O)c2c(c1)O[C@H](c1ccc(O)c(O)c1)[C@H](O)C2 | > 4 mM (inactive)
74 | S=C(NCc1cccnc1)NC1CC1 | > 4 mM (inactive)
75 | COC1=C(OC)C(=O)C(C/C=C(\C)CC/C=C(\C)CC/C=C(\C)CC/C=C(/C)CC/C=C(\C)CC/C=C(\C)CC/C=C(\C)CC/C=C(\C)CC/C=C(\C)CCC=C(C)C)=C(C)C1=O | > 4 mM (inactive)
76 | Nc1ccc(F)cc1F | > 4 mM (inactive)
77 | CC(=O)NC(=S)Nc1ccc(S(N)(=O)=O)cc1 | > 4 mM (inactive)
78 | CC(=O)NC1(NC(C)=O)CCN(C)CC1 | > 4 mM (inactive)
79 | NC1=NC(=O)/C(=C/c2ccccc2[N+](=O)[O-])S1 | > 4 mM (inactive)
80 | COC(=O)c1ccc(N2CCOCC2)nc1 | > 4 mM (inactive)
81 | CC(C)(C)CC(=O)N1CCC(C(N)=O)CC1 | > 4 mM (inactive)
82 | CCc1c(C)[nH]c(=S)c(C(N)=O)c1C | > 4 mM (inactive)
83 | CCCn1cnn2c(=O)cc(C)nc12 | > 4 mM (inactive)
84 | CC(=O)Nc1nc(C)c(C(C)=O)s1 | > 4 mM (inactive)
85 | CC1CCN(C(=O)c2cc3ccccc3o2)CC1 | > 4 mM (inactive)
86 | O=C(O)CCc1ccc2c(c1)OCO2 | > 4 mM (inactive)
87 | O=C(O)CCn1cncn1 | > 4 mM (inactive)
88 | NC(=O)CSc1ccc(Br)cc1 | > 4 mM (inactive)
89 | O=[N+]([O-])c1cccc(-c2nnco2)c1 | > 4 mM (inactive)
90 | Cn1c(SCC(N)=O)nc2ccccc2c1=O | > 4 mM (inactive)
91 | Oc1ccc([C@H]2Oc3cc(O)cc(O)c3C[C@H]2O)cc1 | > 4 mM (inactive)
92 | CC(=O)Nc1ccc(N2C(=O)C=CC2=O)cc1C | > 4 mM (inactive)

Row | Compound | Kd
93 | CC(C)(C)C(=O)Nc1nnc(SCC(N)=O)s1 | > 4 mM (inactive)
94 | CC1CCN(C(=S)c2ccccc2O)CC1 | > 4 mM (inactive)
95 | COc1cc([C@@H]2c3cc4c(cc3[C@H](OC(C)=O)[C@H]3COC(=O)[C@H]23)OCO4)cc(OC)c1OC | > 4 mM (inactive)
96 | COc1ccc(C2NC(C(=O)O)CS2)cc1 (configuration not stated) | > 4 mM (inactive)
97 | OC[C@H]1O[C@@](CO)(O[C@@H]2O[C@H](CO)[C@@H](O)[C@H](O)[C@H]2O)[C@@H](O[C@@H]2O[C@H](CO)[C@@H](O)[C@H](O)[C@H]2O)[C@@H]1O | > 4 mM (inactive)
98 | CC1(C)C[C@@H]2C(=O)CC[C@H]3O[C@]3(C)CC[C@H]21 | > 4 mM (inactive)
99 | Cn1cc(C(=O)N/N=C/c2ccccc2)ccc1=O | > 4 mM (inactive)
100 | Cc1noc(C)c1C(=O)NC1=NCCS1 | > 4 mM (inactive)
101 | Cc1ccc(-c2nc(-c3cccnc3)no2)cc1 | > 4 mM (inactive)
102 | O=S1(=O)CCC(NC(=S)Nc2ccccn2)C1 (configuration not stated) | > 4 mM (inactive)
103 | O=C(O[C@@H]1Cc2c(O)cc(O)cc2O[C@@H]1c1cc(O)c(O)c(O)c1)c1cc(O)c(O)c(O)c1 | > 4 mM (inactive)
104 | CC1=NCCc2c1[nH]c1cc(O)ccc21 | > 4 mM (inactive)
105 | COc1cc2c(cc1-c1cc3cc4ccoc4cc3oc1=O)OCO2 | > 4 mM (inactive)
106 | Cc1cc(C(=O)Nc2sc3c(c2C#N)CCC3)no1 | > 4 mM (inactive)
107 | COc1ccc(-c2coc3cc(O)ccc3c2=O)c(O)c1O | > 4 mM (inactive)
108 | CS(=O)(=O)N1CCN(C(=O)c2ccccc2)CC1 | > 4 mM (inactive)
109 | CC1(C)C(=O)C=C[C@@]2(C)C1=C(O)C(=O)[C@]1(C)C2CC[C@@]2(C)[C@H](c3ccoc3)C[C@H]3O[C@]321 (some centres not stated) | > 4 mM (inactive)
110 | c1cc2n(c1)CCNC2c1ccncc1 (configuration not stated) | > 4 mM (inactive)
111 | Cn1c(NCc2ccco2)nc2ccccc21 | > 4 mM (inactive)
112 | Oc1cc(O)c2c(c1)O[C@H](c1ccc(O)c(O)c1)[C@@H](O)C2 | > 4 mM (inactive)
